# According to patent US10639300B2, “Compositions and methods for treating nasal and paranasal mucosa diseases with nicotinic acetylcholine receptor agonists” (priority 2016, dated 2020):
# Legend:
# [1] = test system: patient with chronic nasal congestion; details: aqueous solution 1.00 mg/ml with salicylic acid 0.5 mg/ml, two drops in each nostril, three or four times a day, follow-up one month later
# Text: The patient also complained of frequent headaches in the forehead region.
# The dose was repeated three or four times a day. […] It was felt by the clinician that the possible causative agent/s for the chronic nasal congestion may have been external environment factors such as cold, dust, air pollution, second-hand cigarette smoke and/or seasonal allergens such as pollens.
# [2] = test system: patient with nose bleeding and atrophy of the nasal cavity mucous membranes; details: person, aqueous solution 2.0 mg/ml with salicylic acid 0.5 mg/ml, one to two drops, three to four times a day
# Method: The patient was a person with a history of nose bleeding in small quantities and sensation of dryness in the nose and eyes. The patient also reported a long history of joint pain, but no other remarkable antecedents.
# The treatment for patient two began with an aqueous solution of (S)-(1-methyl-2-pyrrolidinyl)-pyridine at a concentration of 2.0 mg/ml and salicylic acid at a concentration of 0.5 mg/ml at a dose of one to two drops (about 50 μL per drop) followed by forced inhalation. The dose was repeated three to four times a day.
# human cancer cells = details: experimental cultures of human cancer cells; concentration 5 mg/ml
smiles,measurement,setting,value
CN1CCC[C@H]1c1cccnc1 [(S)-(1-methyl-2-pyrrolidinyl)-pyridine],patient-reported improvement of symptoms (100% being what the patient considered normal),[1],90%
same,nasal bleeding (patient report),[2]; follow-up one month later,ceased
same,sensation of dryness in the nose and eyes (patient report),[2]; since the first week of treatment,diminished markedly
same,inhibition of proliferation,human cancer cells,95%
